{
  "source": "patent US11547694B2",
  "about": "“CXCR4/CXCR7 blockade and treatment of human papilloma virus-associated disease” (priority 2017, dated 2023)",
  "key": {"[1]": {"tested_on": "mature leukocytes", "details": "administration of AMD3100; cited from earlier work"}, "[2]": {"details": "0.01-0.02 mg/kg subcutaneously twice daily for 6 months; phase I clinical trial (Blood 2014; 123(15):2308-16); cited from earlier work"}, "[3]": {"tested_on": "TC-1 tumor cells", "assay_type": "in vivo", "details": "C57BL/6 mice with s.c. TC-1 tumors", "text": "Methods. C57BL/6 mice were inoculated with 1×10^5 TC-1 tumor cells subcutaneously into the right flank. When tumors reached approximately 60-70 mm^3 in size, various treatments were initiated. The treatment groups (N=5) consisted of no treatment, administration of an isotype control IgG antibody (clone 2A3, BioXcell), anti-PD-1 monotherapy (clone 29F.1A12, BioXcell), AMD3100 monotherapy (catalog AB120718, AbCam), combination of AMD3100 and anti-PD-1 and combination of AMD3100, anti-PD-1, and an HPV vaccine (See, FIGS. 1, 2, 3, and 4).\nThe treatment regimen consisted of administration of 0.5 mg/mouse of anti-PD-1 antibody (clone 29F.1A12, BioXcell) or isotype control antibody (clone 2A3, BioXcell) every 5 days for a total of 3 treatments. Prior to each dose of antibody, the mice were treated with 3 mg/kg of AMD3100 (catalog AB120718, AbCam). In addition, a subset of mice were treated with a 1:1 ratio of 20 mcg of HPV E7 peptide vaccine and 20 mcg of poly I:C adjuvant in a total volume of 20 μl, which was administered intratumorally. The tumors were measured twice a week with calipers. When the tumor measured over 2 centimeters in any one direction, the animal was sacrificed according to IACUC policy."}, "[4]": {"molecular_target": "CXCR4 (Homo sapiens, UniProt P61073)", "sequence (P61073 whole entry)": "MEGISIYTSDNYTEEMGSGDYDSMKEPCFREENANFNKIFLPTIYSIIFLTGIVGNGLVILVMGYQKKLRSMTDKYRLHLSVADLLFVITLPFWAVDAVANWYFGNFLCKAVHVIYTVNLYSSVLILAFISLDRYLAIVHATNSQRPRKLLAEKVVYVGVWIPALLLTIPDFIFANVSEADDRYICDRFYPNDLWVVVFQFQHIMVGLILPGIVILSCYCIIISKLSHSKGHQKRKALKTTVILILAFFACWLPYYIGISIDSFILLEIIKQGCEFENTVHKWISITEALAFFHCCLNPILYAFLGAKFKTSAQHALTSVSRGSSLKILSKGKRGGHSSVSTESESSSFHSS", "details": "cited from earlier work"}, "[5]": {"tested_on": "ovarian preclinical cancer model"}},
  "data": [
    {"smiles": "c1cc(CN2CCCNCCNCCCNCC2)ccc1CN1CCCNCCNCCCNCC1", "note": "[AMD3100]", "values": [
      {"measurement": "mobilization of leukocytes into the blood", "setting": "[1]", "value": "rapidly mobilize all major subsets of mature leukocytes into the blood"},
      {"measurement": "safety of long-term, low-dose treatment", "setting": "[2]", "value": "demonstrated the safety"},
      {"measurement": "anti-tumor effect (tumor growth, FIG. 1, FIG. 3)", "setting": "[3]; AMD3100 3 mg/kg before each antibody dose, anti-PD-1 0.5 mg/mouse every 5 days x3, HPV E7 peptide vaccine intratumorally, caliper tumor volume", "value": "enhanced anti-tumor effect"},
      {"measurement": "survival (FIG. 2, FIG. 4)", "setting": "[3]; same regimen, Log-rank test", "value": "prolonged survival"},
      {"measurement": "antagonism of CXCR4", "setting": "[4]", "value": "highly specific antagonist of CXCR4"},
      {"measurement": "CD8+ T cells", "setting": "[5]", "value": "increase"},
      {"measurement": "Treg infiltration", "setting": "[5]", "value": "decrease"},
      {"measurement": "anti-tumor effect", "setting": "[5]", "value": "enhanced anti-tumor effect"}
    ]}
  ]
}
